Numbered stars: 1 amine (or outer) side, 2 acyl side, 3 side chain; on linkers, the order of the positions; unused ones are H or OH. Bridge positions count the residues as written; N and C are the ends. Square brackets hold non-standard residues; d marks the D form. Peptide text beside a SMILES is read from it. * marks the point of attachment. hPhe(3,5-F2-4-CF3) = N[C@@H](CCc1cc(F)c(C(F)(F)F)c(F)c1)C(=O)O; hPhe(3-Cl-4-CF3) = N[C@@H](CCc1ccc(C(F)(F)F)c(Cl)c1)C(=O)O; hPhe(3-F,4-CF3) = N[C@@H](CCc1ccc(C(F)(F)F)c(F)c1)C(=O)O; NEtPhe(4-CF3) = CCN[C@@H](Cc1ccc(C(F)(F)F)cc1)C(=O)O; NEtAsp = CCN([C@@H](CC(=O)[*:3])C(=O)[*:2])[*:1]; 3Oxa8azabicyclo(3.2.1)octane = C1CC2COCC1N2*; NMePhe(4-Me) = CN[C@@H](Cc1ccc(C)cc1)C(=O)O; NMePhe(4-F) = CN[C@@H](Cc1ccc(F)cc1)C(=O)O; NMedβ3hAla = C[C@H](CC(=O)[*:2])N(C)[*:1]; NMeGly(cPent) = CN[C@H](C(=O)O)C1CCCC1; Pro(4,4-F2) = O=C(O)[C@@H]1CC(F)(F)CN1; NMeGly(cBu) = CN[C@H](C(=O)O)C1CCC1; NMeCha = CN[C@@H](CC1CCCCC1)C(=O)O; NMeI = CC[C@H](C)[C@H](NC)C(=O)O; NMeD = CN[C@@H](CC(=O)O)C(=O)O; NMeL = CN[C@@H](CC(C)C)C(=O)O; NEtAla = CCN[C@@H](C)C(=O)O; NMeV = CN[C@H](C(=O)O)C(C)C; d(β3hA) = C[C@@H](N)CC(=O)O; NMeS = CN[C@@H](CO)C(=O)O; NMeA = CN[C@@H](C)C(=O)O; Piperidide = C1CCN(*)CC1; Ac5c = NC1(C(=O)O)CCCC1; Aze = O=C(O)[C@@H]1CCN1; Ac4c = NC1(C(=O)O)CCC1; Sar = CNCC(=O)O; Propyl = CCC*
Target: protein-protein interaction between Kras and SOS1 (biotin-tagged human Kras loaded with GDP, His-tagged human SOS1) (Homo sapiens (Human), UniProt P01116, G12D)
Test: Protein-protein interaction inhibition between Kras and SOS1 (KrasG12D-SOS PPI) using AlphaScreen;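 also: kras produced in E. coli, Ni-coupled donor beads and streptavidin acceptor beads, excitation 680 nm with emission detected at 520–620 nm via singlet oxygen transfer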
Assay type: biochemical
Conditions: AlphaScreen; biotin-tagged human Kras loaded with GDP, His-tagged human SOS1; read-out: KRAS G12D-SOS PPI IC50

Row | SMILES | IC50
1 | CC[C@H](C)[C@@H]1NC(=O)[C@H](CC(C)C)N(C)C(=O)C[C@@H](C)NC(=O)[C@H](C2CCCC2)N(C)C(=O)C2(CCCC2)NC(=O)[C@@H]2CCCN2C(=O)[C@H](CCc2ccc(C(F)(F)F)c(Cl)c2)NC(=O)CN(C)C(=O)[C@H](Cc2ccc(C)cc2)N(C)C(=O)[C@@H]2CCN2C(=O)[C@H](C)N(CC)C1=O [Compound 1023] (cyclo([Ac5c][NMeGly(cPent)][d(β3hA)][NMeL]I[NEtAla][Aze][NMePhe(4-Me)][Sar][hPhe(3-Cl-4-CF3)]P)) | 20 nM
2 | CCCOC[C@H]1C(=O)N(C)CC(=O)N[C@@H](CCc2ccc(C(F)(F)F)c(F)c2)C(=O)N2CCC[C@H]2C(=O)NC2(CCCC2)C(=O)N(C)[C@@H](C2CCCC2)C(=O)N(C)[C@H](C(=O)N2CCCCC2)CC(=O)N(C)[C@@H](CC(C)C)C(=O)N[C@@H]([C@@H](C)CC)C(=O)N(C)[C@@H](C)C(=O)N2CC[C@H]2C(=O)N1C [Compound 1029] ([NMeL]I[NMeA][Aze][NMeS](Propyl)[Sar][hPhe(3-F,4-CF3)]P[Ac5c][NMeGly(cPent)][NMeD]-Piperidide; lactam N-11) | 1.4 nM
3 | CCCOC[C@H]1C(=O)N(C)CC(=O)N[C@@H](CCc2ccc(C(F)(F)F)c(F)c2)C(=O)N2CCC[C@H]2C(=O)NC2(CCCC2)C(=O)N(C)[C@@H](C2CCCC2)C(=O)N(C)[C@H](C(=O)N2C3CCC2COC3)CC(=O)N(C)[C@@H](CC(C)C)C(=O)N[C@@H]([C@@H](C)CC)C(=O)N(C)[C@@H](C)C(=O)N2CC[C@H]2C(=O)N1C [Compound 1030] ([NMeL]I[NMeA][Aze][NMeS](Propyl)[Sar][hPhe(3-F,4-CF3)]P[Ac5c][NMeGly(cPent)][NMeD]-{3Oxa8azabicyclo(3.2.1)octane}; lactam N-11) | 1.7 nM
4 | CC[C@H](C)[C@@H]1NC(=O)[C@H](C2CCC2)N(C)C(=O)C[C@@H](C(=O)N2CCCCC2)N(C)C(=O)[C@H](C(C)C)N(C)C(=O)C2(CCCC2)NC(=O)[C@@H]2CCCN2C(=O)[C@H](CCc2ccc(C(F)(F)F)c(Cl)c2)NC(=O)CN(C)C(=O)[C@H](CC2CCCCC2)N(C)C(=O)[C@@H]2CCN2C(=O)[C@H](C)N(C)C1=O [Compound 1036] ([NMeGly(cBu)]I[NMeA][Aze][NMeCha][Sar][hPhe(3-Cl-4-CF3)]P[Ac5c][NMeV][NMeD]-Piperidide; lactam N-11) | 7.7 nM
5 | CC[C@H](C)[C@@H]1NC(=O)[C@H](CC(C)C)N(C)C(=O)C[C@@H](C(=O)N2CCCCC2)N(C)C(=O)[C@H](C(C)C)N(C)C(=O)C2(CCCC2)NC(=O)[C@@H]2CCCN2C(=O)[C@H](CCc2ccc(C(F)(F)F)c(F)c2)NC(=O)CN(C)C(=O)[C@H](CC2CCCCC2)N(C)C(=O)[C@@H]2CCN2C(=O)[C@H](C)N(C)C1=O [Compound 1040] ([NMeL]I[NMeA][Aze][NMeCha][Sar][hPhe(3-F,4-CF3)]P[Ac5c][NMeV][NMeD]-Piperidide; lactam N-11) | 14 nM
6 | CC[C@H](C)[C@@H]1NC(=O)[C@H](CC(C)C)N(C)C(=O)C[C@@H](C)N(C)C(=O)[C@H](C2CCCC2)N(C)C(=O)C2(CCCC2)NC(=O)[C@@H]2CCCN2C(=O)[C@H](CCc2ccc(C(F)(F)F)c(Cl)c2)NC(=O)CN(C)C(=O)[C@H](C2CCCC2)N(C)C(=O)[C@@H]2CCN2C(=O)[C@H](C)N(C)C1=O [Compound 1046] (cyclo([Ac5c][NMeGly(cPent)][NMedβ3hAla][NMeL]I[NMeA][Aze][NMeGly(cPent)][Sar][hPhe(3-Cl-4-CF3)]P)) | 4.6 nM
7 | CC[C@H](C)[C@@H]1NC(=O)[C@H](CC(C)C)N(C)C(=O)C[C@@H](C(=O)N2CCCCC2)N(CC)C(=O)[C@H](C2CCCC2)N(C)C(=O)C2(CCCC2)NC(=O)[C@@H]2CCCN2C(=O)[C@H](CCc2ccc(C(F)(F)F)c(Cl)c2)NC(=O)CN(C)C(=O)[C@H](C2CCC2)N(C)C(=O)[C@@H]2CCN2C(=O)[C@H](C)N(C)C1=O [Compound 1047] ([NMeL]I[NMeA][Aze][NMeGly(cBu)][Sar][hPhe(3-Cl-4-CF3)]P[Ac5c][NMeGly(cPent)][NEtAsp]-Piperidide; lactam N-11) | 6.3 nM
8 | CC[C@H](C)[C@@H]1NC(=O)[C@H](CC(C)C)N(C)C(=O)C[C@@H](C)N(C)C(=O)[C@H](C2CCCC2)N(C)C(=O)C2(CCC2)NC(=O)[C@@H]2CC(F)(F)CN2C(=O)[C@H](CCc2cc(F)c(C(F)(F)F)c(F)c2)NC(=O)CN(C)C(=O)[C@H](Cc2ccc(C(F)(F)F)cc2)N(CC)C(=O)[C@@H]2CCN2C(=O)[C@H](C)N(C)C1=O [Compound 1049] (cyclo([Ac4c][NMeGly(cPent)][NMedβ3hAla][NMeL]I[NMeA][Aze][NEtPhe(4-CF3)][Sar][hPhe(3,5-F2-4-CF3)][Pro(4,4-F2)])) | 3.7 nM
9 | CC[C@H](C)[C@@H]1NC(=O)[C@H](CC(C)C)N(C)C(=O)C[C@@H](C(=O)N2CCCCC2)N(C)C(=O)[C@H]([C@@H](C)CC)N(C)C(=O)C2(CCCC2)NC(=O)[C@@H]2CCCN2C(=O)[C@H](CCc2ccc(C(F)(F)F)c(Cl)c2)NC(=O)CN(C)C(=O)[C@H](Cc2ccc(F)cc2)N(C)C(=O)[C@@H]2CCN2C(=O)[C@H](C)N(C)C1=O [Compound 1060] ([NMeL]I[NMeA][Aze][NMePhe(4-F)][Sar][hPhe(3-Cl-4-CF3)]P[Ac5c][NMeI][NMeD]-Piperidide; lactam N-11) | 0.65 nM
